From ChEMBL document CHEMBL3352351 (Bioorg Med Chem, 2014)

Assays:
[1] = test system: HT-29; experiment: Cytotoxicity against human HT-29 cells after 72 hrs by MTT assay; conditions: HT-29, 72 h
[2] = Cytotoxicity against human MKN45 cells after 72 hrs by MTT assay; conditions: MKN-45, 72 h
[3] = Cytotoxicity against human U87MG cells after 72 hrs by MTT assay; type: functional, cell-based, U-87MG ATCC; conditions: U-87 MG
[4] = test system: A549; experiment: Cytotoxicity against human A549 cells after 72 hrs by MTT assay; conditions: A549, 72 h
[5] = target: Hepatocyte growth factor receptor (Homo sapiens, UniProt P08581); experiment: Inhibition of c-Met (unknown origin) using poly (Glu, Tyr) 4:1 substrate incubated for 30 mins by HTRF assay
Chain of Hepatocyte growth factor receptor (P08581 whole entry): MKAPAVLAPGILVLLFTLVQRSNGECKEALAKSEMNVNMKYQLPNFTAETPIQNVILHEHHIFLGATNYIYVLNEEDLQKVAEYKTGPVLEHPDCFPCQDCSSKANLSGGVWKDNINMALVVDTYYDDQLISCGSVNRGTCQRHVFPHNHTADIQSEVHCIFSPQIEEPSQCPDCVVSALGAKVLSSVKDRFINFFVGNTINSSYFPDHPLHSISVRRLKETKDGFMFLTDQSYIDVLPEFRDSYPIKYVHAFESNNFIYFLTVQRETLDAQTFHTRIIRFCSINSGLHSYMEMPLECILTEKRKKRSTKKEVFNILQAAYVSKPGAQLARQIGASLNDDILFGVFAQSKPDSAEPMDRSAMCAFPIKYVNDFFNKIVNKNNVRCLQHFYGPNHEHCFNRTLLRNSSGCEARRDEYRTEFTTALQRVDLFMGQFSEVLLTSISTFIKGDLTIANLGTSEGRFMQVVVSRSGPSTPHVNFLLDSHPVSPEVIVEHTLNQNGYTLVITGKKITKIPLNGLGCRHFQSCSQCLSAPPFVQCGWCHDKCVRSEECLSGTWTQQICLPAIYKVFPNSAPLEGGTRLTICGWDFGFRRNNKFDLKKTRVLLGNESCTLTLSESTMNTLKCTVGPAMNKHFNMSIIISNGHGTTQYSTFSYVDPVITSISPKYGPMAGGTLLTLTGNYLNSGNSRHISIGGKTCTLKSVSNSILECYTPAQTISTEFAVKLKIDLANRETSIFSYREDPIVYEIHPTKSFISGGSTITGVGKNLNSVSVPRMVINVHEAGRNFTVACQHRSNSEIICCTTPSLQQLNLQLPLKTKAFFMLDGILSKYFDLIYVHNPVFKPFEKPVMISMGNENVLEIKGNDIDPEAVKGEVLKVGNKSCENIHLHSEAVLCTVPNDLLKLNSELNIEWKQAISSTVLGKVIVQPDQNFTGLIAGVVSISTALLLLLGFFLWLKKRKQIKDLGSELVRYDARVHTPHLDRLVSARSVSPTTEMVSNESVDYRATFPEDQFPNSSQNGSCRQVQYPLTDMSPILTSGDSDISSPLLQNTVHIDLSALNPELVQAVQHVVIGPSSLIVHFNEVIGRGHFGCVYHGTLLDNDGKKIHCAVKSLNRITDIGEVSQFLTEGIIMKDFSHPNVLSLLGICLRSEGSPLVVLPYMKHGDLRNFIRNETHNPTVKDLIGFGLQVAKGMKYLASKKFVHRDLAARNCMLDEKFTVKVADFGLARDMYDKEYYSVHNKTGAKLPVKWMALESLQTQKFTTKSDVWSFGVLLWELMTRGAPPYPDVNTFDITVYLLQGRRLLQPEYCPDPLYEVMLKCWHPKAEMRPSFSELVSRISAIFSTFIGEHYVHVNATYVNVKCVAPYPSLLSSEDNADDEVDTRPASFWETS

[6] = Cytotoxicity against human H460 cells after 72 hrs by MTT assay; conditions: NCI-H460, 72 h

IC50 [5] [nM] | Compound | IC50 [1] [nM] | IC50 [2] [nM] | IC50 [3] [nM] | IC50 [4] [nM] | IC50 [6] [nM]
– | COc1cc2c(Oc3ccc(NC(=O)c4nnn(-c5ccccc5)c4C)cc3F)ccnc2cc1OCCCN1CCCCC1 | 120 | 80 | 1130 | 100 | –
– | COc1cc2c(Oc3ccc(NC(=O)c4nnn(-c5ccccc5)c4C)cc3F)ccnc2cc1OCCCN1CCCC1 | 130 | 40 | 1000 | 90 | –
– | COc1cc2c(Oc3ccc(NC(=O)c4nnn(-c5ccccc5Cl)c4C(F)(F)F)cc3F)ccnc2cc1OCCCN1CCCCC1 | 200 | 110 | 1200 | 190 | –
– | COc1cc2c(Oc3ccc(NC(=O)c4nnn(-c5ccccc5)c4C)cc3F)ccnc2cc1OCCCN1CCOCC1 | 180 | 60 | 1060 | 140 | –
– | COc1cc2c(Oc3ccc(NC(=O)c4nnn(-c5ccccc5C(F)(F)F)c4C)cc3F)ccnc2cc1OCCCN1CCOCC1 | 200 | 100 | 1010 | 180 | –
– | COc1cc2c(Oc3ccc(NC(=O)c4nnn(-c5ccc(F)cc5)c4C(F)(F)F)cc3F)ccnc2cc1OCCCN1CCC(C)CC1 | 160 | 70 | 800 | 120 | –
– | COc1ccc(-n2nnc(C(=O)Nc3ccc(Oc4ccnc5cc(OCCCN6CCCC6)c(OC)cc45)c(F)c3)c2C(F)(F)F)cc1 | 1020 | 590 | – | 560 | –
– | COc1cc2c(Oc3ccc(NC(=O)c4nnn(-c5ccccc5C(F)(F)F)c4C)cc3F)ccnc2cc1OCCCN1CCCCC1 | 200 | 90 | 1150 | 170 | –
– | COc1cc2c(Oc3ccc(NC(=O)c4nnn(-c5ccc(C)cc5)c4C(F)(F)F)cc3F)ccnc2cc1OCCCN1CCC(C)CC1 | 1200 | 140 | 2800 | 400 | –
– | COc1ccc(-n2nnc(C(=O)Nc3ccc(Oc4ccnc5cc(OCCCN6CCOCC6)c(OC)cc45)c(F)c3)c2C(F)(F)F)cc1 | 1080 | 680 | 2400 | 640 | –
– | COc1cc2c(Oc3ccc(NC(=O)c4nnn(-c5ccc(C)cc5)c4C(F)(F)F)cc3F)ccnc2cc1OCCCN1CCCCC1 | 1250 | 230 | 2500 | 490 | –
– | COc1cc2c(Oc3ccc(NC(=O)c4nnn(-c5ccccc5C)c4C)cc3F)ccnc2cc1OCCCN1CCCC1 | 450 | 270 | 1600 | 380 | –
– | COc1cc2c(Oc3ccc(NC(=O)c4nnn(-c5ccc(F)c(F)c5)c4C(F)(F)F)cc3F)ccnc2cc1OCCCN1CCCC1 | 180 | 70 | 1070 | 170 | –
– | COc1cc2c(Oc3ccc(NC(=O)c4nnn(-c5ccc(C)cc5)c4C(F)(F)F)cc3F)ccnc2cc1OCCCN1CCN(C)CC1 | 1170 | 140 | 2170 | 370 | –
– | COc1cc2c(Oc3ccc(NC(=O)c4nnn(-c5ccc(C)cc5)c4C(F)(F)F)cc3F)ccnc2cc1OCCCN1CCOCC1 | 570 | 620 | 2700 | 350 | –
– | COc1cc2c(Oc3ccc(NC(=O)c4nnn(-c5ccc(F)cc5)c4C(F)(F)F)cc3F)ccnc2cc1OCCCN1CCCCC1 | 150 | 40 | 1100 | 110 | –
– | COc1cc2c(Oc3ccc(NC(=O)c4nnn(-c5ccc(C)cc5)c4C(F)(F)F)cc3F)ccnc2cc1OCCCN1CCCC1 | 550 | 210 | – | 370 | –
– | COc1cc2c(Oc3ccc(NC(=O)c4nnn(-c5ccccc5C(F)(F)F)c4C)cc3F)ccnc2cc1OCCCN1CCC(C)CC1 | 260 | 60 | 1120 | 180 | –
– | COc1ccc(-n2nnc(C(=O)Nc3ccc(Oc4ccnc5cc(OCCCN6CCN(C)CC6)c(OC)cc45)c(F)c3)c2C(F)(F)F)cc1 | 2200 | 330 | – | 1220 | –

IC50 [5] [nM] | Compound | IC50 [1] [nM] | IC50 [2] [nM] | IC50 [3] [nM] | IC50 [4] [nM] | IC50 [6] [nM]
– | COc1cc2c(Oc3ccc(NC(=O)c4nnn(-c5ccccc5C(F)(F)F)c4C(F)(F)F)cc3F)ccnc2cc1OCCCN1CCOCC1 | 230 | 90 | 1160 | 210 | –
– | COc1cc2c(Oc3ccc(NC(=O)c4nnn(-c5cccc(Br)c5)c4C(F)(F)F)cc3F)ccnc2cc1OCCCN1CCC(C)CC1 | 380 | 120 | – | 350 | –
– | COc1cc2c(Oc3ccc(NC(=O)c4nnn(-c5ccc(F)c(F)c5)c4C(F)(F)F)cc3F)ccnc2cc1OCCCN1CCCCC1 | 180 | 90 | 1210 | 160 | –
– | COc1cc2c(Oc3ccc(NC(=O)c4nnn(-c5ccccc5C(F)(F)F)c4C)cc3F)ccnc2cc1OCCCN1CCN(C)CC1 | 230 | 100 | 1420 | 200 | –
– | COc1cc2c(Oc3ccc(NC(=O)c4nnn(-c5ccccc5C)c4C)cc3F)ccnc2cc1OCCCN1CCOCC1 | 470 | 220 | 1500 | 320 | –
– | COc1cc2c(Oc3ccc(NC(=O)c4nnn(-c5ccccc5)c4C)cc3F)ccnc2cc1OCCCN1CCC(C)CC1 | 140 | 90 | 1240 | 110 | –
– | COc1cc2c(Oc3ccc(NC(=O)c4nnn(-c5ccc(F)c(F)c5)c4C(F)(F)F)cc3F)ccnc2cc1OCCCN1CCN(C)CC1 | 150 | 90 | 1390 | 130 | –
– | COc1cc2c(Oc3ccc(NC(=O)c4nnn(-c5ccccc5C(F)(F)F)c4C(F)(F)F)cc3F)ccnc2cc1OCCCN1CCC(C)CC1 | 200 | 100 | 1240 | 220 | –
– | COc1cc2c(Oc3ccc(NC(=O)c4nnn(-c5ccccc5C)c4C)cc3F)ccnc2cc1OCCCN1CCC(C)CC1 | 520 | 120 | 2160 | 360 | –
3.68 | COc1cc2c(Oc3ccc(NC(=O)c4nnn(-c5ccccc5C(F)(F)F)c4C(F)(F)F)cc3F)ccnc2cc1OCCCN1CCCC1 | 210 | 60 | 1180 | 200 | 270
– | COc1cc2c(Oc3ccc(NC(=O)c4nnn(-c5ccc(F)c(F)c5)c4C(F)(F)F)cc3F)ccnc2cc1OCCCN1CCOCC1 | 230 | 50 | 1130 | 150 | –
– | COc1cc2c(Oc3ccc(NC(=O)c4nnn(-c5ccccc5C(F)(F)F)c4C)cc3F)ccnc2cc1OCCCN1CCCC1 | 200 | 70 | 1060 | 160 | –
– | COc1cc2c(Oc3ccc(NC(=O)c4nnn(-c5ccccc5Cl)c4C(F)(F)F)cc3F)ccnc2cc1OCCCN1CCN(C)CC1 | 270 | 166 | 1220 | 240 | –
– | COc1cc2c(Oc3ccc(NC(=O)c4nnn(-c5ccc(F)cc5)c4C(F)(F)F)cc3F)ccnc2cc1OCCCN1CCOCC1 | 140 | 60 | 1080 | 130 | –
– | COc1ccc(-n2nnc(C(=O)Nc3ccc(Oc4ccnc5cc(OCCCN6CCCCC6)c(OC)cc45)c(F)c3)c2C(F)(F)F)cc1 | 1220 | 280 | 2800 | 890 | –
– | COc1cc2c(Oc3ccc(NC(=O)c4nnn(-c5ccccc5C(F)(F)F)c4C(F)(F)F)cc3F)ccnc2cc1OCCCN1CCN(C)CC1 | 230 | 100 | 1440 | 180 | –
– | COc1cc2c(Oc3ccc(NC(=O)c4nnn(-c5ccccc5C)c4C)cc3F)ccnc2cc1OCCCN1CCCCC1 | 450 | 160 | 2370 | 330 | –
– | COc1cc2c(Oc3ccc(NC(=O)c4nnn(-c5ccc(F)c(F)c5)c4C(F)(F)F)cc3F)ccnc2cc1OCCCN1CCC(C)CC1 | 190 | 50 | 1150 | 140 | –
